The experiment has as its system symptoms of Parkinson's disease. The experiment is described as follows: Application to parkinsonian patients for treating the symptoms of Parkinson's disease. The following applies: compared within the anilide group of local anesthetics (lidocaine, bupivacaine, butanilicaine, etidocaine, tolycaine). It is filed as in vivo, human (parkinsonian patients). An excerpt:
The inventive use has the effect, upon application to parkinsonian patients, that the specific symptoms of Parkinson's disease clearly subside, the resulting improved condition of the patient continuing for several hours and even days. In particular, a clear improvement of disease-specific symptoms was obtained with the inventive use […] “local anesthetic of the anilide group” essential to the inventive use belongs in general to the local anesthetics of different structure, the local anesthetics of the anilide group and their derivatives being preferred for treatment as a subgroup of said local anesthetics. Examples of said subgroup are not only mepivacaine but also lidocaine, bupivacaine, butanilicaine, etidocaine and tolycaine. […] One supposition is that the small molecular size of mepivacaine provides an increased probability of crossing the blood-brain barrier. Mepivacaine is in addition lipophilic, i.e. lipid-loving, and tends to attach to fat molecules. It is remarkable in this connection that neurons are usually embedded in fat and an accumulation or concentration of mepivacaine in fat will presumably also have effects on the nervous pathways running through fatty tissue. Levodopa also has strong lipophilia, like mepivacaine, so that this connection might also provide a mechanism of action. […]

The values below come from patent publication US6514999B1, “Use of an agent for treating the symptoms of Parkinson's disease” (priority 1998, dated 2003).

With `Cc1cccc(C)c1NC(=O)C1CCCCN1C` (stereo not shown) [mepivacaine], the “effectiveness in treating patients with Parkinson's disease” value is “most effective”.
